Reference: the supplement of paper PMC11451515

How the values were obtained:
Settings in all cases: 48 h
NOMO1 [1] = assay: AUC of viability dose-response curve (% viability x log10 dose units); higher = less sensitive
Method in brief: (§1)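 Leukemia cells adapted to each medium (500 or 1000 cells/well, 1536-well plates) were exposed to library compounds in DMSO for 48 h at 37°C at 11 threefold doses, 47 μM to 0.79 nM. Luminescence by CellTiter-Glo One was normalised per plate to DMSO and cell-free wells, then fitted with a four-parameter log-logistic curve on log10 dose. Curves above full viability were scaled and quality-control failures removed before area under the curve was integrated by trapezoidal rule.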

SEM cells [2] = assay: as above
Method in brief: as §1

P12-Ichikawa [3] = assay: as above
Method in brief: as §1

NOMO1 [4] = assay: cell viability relative to DMSO control; higher = less cytotoxic
Method in brief: (§2)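 Viability is expressed as a percentage of DMSO wells within each plate, and cell-free wells serve as background. Seeding densities in the 1536-well plates (5 μl) were 500 cells/well for NOMO1 or SEM leukemia cells and 1000 cells/well for P12-Ichikawa. Each line was adapted for at least four passages in each medium. Library compounds in DMSO were pin-dosed at 47 μM to 0.79 nM (11 points, threefold), and CellTiter-Glo One luminescence was read after 48 h at 37°C.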

SEM cells [5] = assay: as above
Method in brief: as §2

P12-Ichikawa [6] = assay: as above
Method in brief: as §2

CC(=O)SC[C@@H](C)C(=O)N1CCC[C@H]1C(=O)N[C@@H](Cc1ccccc1)C(=O)O
AUC of viability dose-response curve
Settings | NOMO1 [1] | P12-Ichikawa [3] | SEM cells [2]
HPLM + 10% dialyzed FBS | 448 | 466 | 454
RPMI 5 mM glucose + 10% FBS | 450 | 466 | 454
RPMI 5 mM glucose + 10% dialyzed FBS | 466 | 462 | 472

cell viability [%]
Settings | NOMO1 [4] | P12-Ichikawa [6] | SEM cells [5]
HPLM + 10% dialyzed FBS, 0.000781 µM | 117 | 99.5 | 116
HPLM + 10% dialyzed FBS, 0.00234 µM | 119 | 108 | 107
HPLM + 10% dialyzed FBS, 0.00702 µM | 95.1 | 108 | 99.6
HPLM + 10% dialyzed FBS, 0.0211 µM | 105 | 104 | 110
HPLM + 10% dialyzed FBS, 0.0632 µM | 115 | 113 | 115
HPLM + 10% dialyzed FBS, 0.19 µM | 114 | 107 | 103
HPLM + 10% dialyzed FBS, 0.569 µM | 97.2 | 106 | 111
HPLM + 10% dialyzed FBS, 1.71 µM | 101 | 104 | 106
HPLM + 10% dialyzed FBS, 5.12 µM | 111 | 102 | 107
HPLM + 10% dialyzed FBS, 15.4 µM | 110 | 101 | 66.7
HPLM + 10% dialyzed FBS, 46.1 µM | 89.3 | 94.1 | 83.3
RPMI 5 mM glucose + 10% FBS, 0.000781 µM | 93.5 | 103 | 83.8
RPMI 5 mM glucose + 10% FBS, 0.00234 µM | 106 | 93.2 | 86.2
RPMI 5 mM glucose + 10% FBS, 0.00702 µM | 105 | 97.6 | 95.3
RPMI 5 mM glucose + 10% FBS, 0.0211 µM | 88.7 | 100 | 98.1
RPMI 5 mM glucose + 10% FBS, 0.0632 µM | 94.1 | 102 | 105
RPMI 5 mM glucose + 10% FBS, 0.19 µM | 100 | 97.8 | 97.7
RPMI 5 mM glucose + 10% FBS, 0.569 µM | 94.4 | 102 | 110
RPMI 5 mM glucose + 10% FBS, 1.71 µM | 94.5 | 96.7 | 97.2
RPMI 5 mM glucose + 10% FBS, 5.12 µM | 85.3 | 98.4 | 113
RPMI 5 mM glucose + 10% FBS, 15.4 µM | 82.5 | 91.3 | 87.1
RPMI 5 mM glucose + 10% FBS, 46.1 µM | 92.1 | 90 | 72.6
RPMI 5 mM glucose + 10% dialyzed FBS, 0.000781 µM | 103 | 99.7 | 95.1
RPMI 5 mM glucose + 10% dialyzed FBS, 0.00234 µM | 99.5 | 101 | 98.3
RPMI 5 mM glucose + 10% dialyzed FBS, 0.00702 µM | 107 | 102 | 114
RPMI 5 mM glucose + 10% dialyzed FBS, 0.0211 µM | 106 | 101 | 104
RPMI 5 mM glucose + 10% dialyzed FBS, 0.0632 µM | 112 | 99.7 | 104
RPMI 5 mM glucose + 10% dialyzed FBS, 0.19 µM | 89.5 | 100 | 103
RPMI 5 mM glucose + 10% dialyzed FBS, 0.569 µM | 106 | 95.4 | 107
RPMI 5 mM glucose + 10% dialyzed FBS, 1.71 µM | 97.3 | 101 | 101
RPMI 5 mM glucose + 10% dialyzed FBS, 5.12 µM | 103 | 92.2 | 110
RPMI 5 mM glucose + 10% dialyzed FBS, 15.4 µM | 106 | 90.8 | 101
RPMI 5 mM glucose + 10% dialyzed FBS, 46.1 µM | 91.5 | 85.2 | 85.7

CN(CCOc1ccc(CC2SC(=O)NC2=O)cc1)c1ccccn1 (centres undefined)
AUC of viability dose-response curve
Settings | NOMO1 [1] | P12-Ichikawa [3] | SEM cells [2]
HPLM + 10% dialyzed FBS | 442 | 467 | 469
RPMI 5 mM glucose + 10% FBS | 474 | 465 | 433
RPMI 5 mM glucose + 10% dialyzed FBS | 443 | 462 | 466

cell viability [%]
Settings | NOMO1 [4] | P12-Ichikawa [6] | SEM cells [5]
HPLM + 10% dialyzed FBS, 0.000781 µM | – | 116 | 116
HPLM + 10% dialyzed FBS, 0.00234 µM | – | 124 | 117
HPLM + 10% dialyzed FBS, 0.00702 µM | – | 113 | 121
HPLM + 10% dialyzed FBS, 0.0211 µM | – | 121 | 106
HPLM + 10% dialyzed FBS, 0.0632 µM | – | 116 | 113
HPLM + 10% dialyzed FBS, 0.19 µM | – | 115 | 123
HPLM + 10% dialyzed FBS, 0.569 µM | – | 120 | 117
HPLM + 10% dialyzed FBS, 1.71 µM | – | 114 | 115
HPLM + 10% dialyzed FBS, 5.12 µM | – | 114 | 124
HPLM + 10% dialyzed FBS, 15.4 µM | – | 111 | 121
HPLM + 10% dialyzed FBS, 46.1 µM | – | 103 | 116
RPMI 5 mM glucose + 10% FBS, 0.000781 µM | 110 | 123 | 76.7
RPMI 5 mM glucose + 10% FBS, 0.00234 µM | 113 | 130 | 94.7
RPMI 5 mM glucose + 10% FBS, 0.00702 µM | 121 | 122 | 85.4
RPMI 5 mM glucose + 10% FBS, 0.0211 µM | 108 | 116 | 102
RPMI 5 mM glucose + 10% FBS, 0.0632 µM | 115 | 120 | 84.2
RPMI 5 mM glucose + 10% FBS, 0.19 µM | 117 | 125 | 81.9
RPMI 5 mM glucose + 10% FBS, 0.569 µM | 113 | 129 | 90.5
RPMI 5 mM glucose + 10% FBS, 1.71 µM | 112 | 125 | 95.1
RPMI 5 mM glucose + 10% FBS, 5.12 µM | 127 | 115 | 85.7
RPMI 5 mM glucose + 10% FBS, 15.4 µM | 113 | 113 | 97.3
RPMI 5 mM glucose + 10% FBS, 46.1 µM | 109 | 106 | 104
RPMI 5 mM glucose + 10% dialyzed FBS, 0.000781 µM | – | 123 | 107
RPMI 5 mM glucose + 10% dialyzed FBS, 0.00234 µM | – | 123 | 119
RPMI 5 mM glucose + 10% dialyzed FBS, 0.00702 µM | – | 127 | 113
RPMI 5 mM glucose + 10% dialyzed FBS, 0.0211 µM | – | 119 | 117
RPMI 5 mM glucose + 10% dialyzed FBS, 0.0632 µM | – | 116 | 113
RPMI 5 mM glucose + 10% dialyzed FBS, 0.19 µM | – | 123 | 107
RPMI 5 mM glucose + 10% dialyzed FBS, 0.569 µM | – | 127 | 112
RPMI 5 mM glucose + 10% dialyzed FBS, 1.71 µM | – | 118 | 106
RPMI 5 mM glucose + 10% dialyzed FBS, 5.12 µM | – | 113 | 121
RPMI 5 mM glucose + 10% dialyzed FBS, 15.4 µM | – | 112 | 114
RPMI 5 mM glucose + 10% dialyzed FBS, 46.1 µM | – | 97.4 | 122
